Structures are written as SMILES.

The subject of data set [1] is retinoic acid response element (RARE) driven LacZ reporter in Sil-15 reporter cells (F9-RARE-lacZ cells). Description: RARE-driven LacZ reporter gene assay (genomic response, Sil-15 reporter cells, X-Gal assay). The format is cell-based. As to conditions: for activation of transcription via a RARE (genomic response): Sil-15 reporter cells, result in words. An excerpt:
(§1) The action of retinoic acid in the brain, the relative importance of genomic versus non-genomic activity of retinoic acid was investigated by determining whether some RAR ligands preferentially activated one pathway. Retinoic acid (FIG. 1) was used as a compound known to induce both genomic and non-genomic pathways of retinoic acid signalling. We measured its relative activity as an inducer of gene transcription using a construct in which the promoter element to which the retinoic acid receptor binds (retinoic acid response element, RARE) drives a LacZ reporter (genomic response). This was compared to a cell based assay to measure induction of ERK 1/2 phosphorylation (non-genomic response).
Sil-15 reporter cells (also called F9-RARE-lacZ cells) were used in the X-Gal Assay. This cell line was derived from a stable transfection of F9 teratocarcinoma cells with a plasmid containing the LacZ gene under the control of a promoter linked to a retinoic acid response element (RARE). These cells were used to visually detect and semi-quantify the transcriptional activity of retinoic acid and other retinoids by monitoring β-galactosidase activity produced by the reporter cells in response to the retinoic acid/retinoids in the surrounding medium.
Sil-15 cells were plated in a 0.1% gelatin-coated 96-well plate and grown to about 85-90% confluence in Dulbecco's modified Eagle's medium (DMEM) containing 10% foetal calf serum and 0.8 mg/ml G418 sulfate for selection.
Serial dilutions of retinoids were prepared from the stock solutions under a red/orange light. A standard curve of RA was included in the experiment as a positive control. The RA/chemicals dilutions were added above the seeded Sil-15 cells in the 96-well plate and then the plate was wrapped with aluminium foil and incubated overnight in a humid atmosphere containing 5% CO2 at 37° C. All the concentrations for the RA and the two chemicals were tested in triplicates.
The next day, Sil-15 cells were washed twice with 1× PBS, fixed with 100 μl per well of 1% glutaraldehyde fixation solution for 15 minutes, washed again two times with 1× PBS and finally β-galactosidase activity was visualized by adding 100 μl of a freshly prepared X-Gal developing solution (5-bromo-4-chloro-3-indolyl-β-d-galactopyranoside) to each well. The plate was incubated overnight at 37° C. in 5% CO2. The plate was read on an Emax microplate reader at 650 nm.

In data set [2] the test system is ERK 1/2 phosphorylation. Put plainly: Induction of ERK 1/2 phosphorylation (non-genomic response). As to conditions: for kinase activity (ERK 1/2 phosphorylation, non-genomic response): result in words. The format is cell-based. The method, then: (§2) (b) The influence of a low concentration of retinoids on number of neurites from SH-SS5Y cells was determined.
as §1

In data set [3] the test system is SH-SY5Y cells. Put plainly: Neurite outgrowth screening assay in SH-SY5Y cells. In kind it is cell-based. As to conditions: for effect on number of neurites compared to control: 10 nM retinoid, SH-SY5Y cells. The procedure:
as §2

Data set [4] addresses T1, Cellular Retinoic Acid Binding Protein II (CRABPII) (Homo sapiens, UniProt P29373).
T1 sequence (P29373 1-138): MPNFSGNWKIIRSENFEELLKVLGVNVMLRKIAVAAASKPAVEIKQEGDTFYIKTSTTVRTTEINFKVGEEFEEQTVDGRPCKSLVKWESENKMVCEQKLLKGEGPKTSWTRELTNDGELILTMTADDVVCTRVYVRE
Put plainly: Fluorometric competitive binding titration of DC271 in CRABPII. An excerpt:
A number of highly fluorescent analogues of retinoic acid (ATRA) have been synthesised at Durham University for use in a variety of imaging and biophysical studies. The fluorescence emission of these fluorescent retinoids, including DC271, is highly solvatochromatic and the intensity of this emission is strongly dependent on environment. Therefore, in a nonpolar solvent, the emission is blue shifted (425-500 nm) and intense, while in a polar solvent the emission is red shifted (500-600 nm) and weak (severely quenched in water). […] When EC23® is titrated against CRABPII-DC271 complex the reduction in fluorescence emission intensity can be used to produce a competition binding curve allowing the estimation of the Ki (inhibition constant) of the competition of EC23® for DC271 bound to CRABPII. […] For the competition with EC23® a solution of [DC271] =49.8 nM and [CRABPII]=75 nM was prepared in PBS buffer (20 mM K2HPO4, 100mM KCl, pH 7.4 buffer) and the fluorescence intensity was measured at 450 nm with excitation at 380 nm. […] The emission intensity of DC271 was plotted against Log[EC23], and a one site competitive binding model was fit to the resultant data (FIG. 5). This provided an estimation of the Log Ki of the competitive binding reaction (Table 1).

The subject of data set [5] is SH-SY5Y cells. Description: Cell number / cell survival of SH-SY5Y cells. In kind it is cell-based. The conditions noted are these: 10 nM, compared to same concentration of retinoic acid.
The nature of data set [6]: Photostability. The format is physicochemical.
Data set [7] in a line: Induction of own catabolism in vivo. As to conditions: unlike retinoic acid.

In the case of `CC1=C(/C=C/C(C)=C/C=C/C(C)=C/C(=O)O)C(C)(C)CCC1` [ATRA, all-trans-retinoic acid], the EC50 was found to be 0.188 nM in data set [1] (RARE-LacZ reporter, 95% confidence interval 90.7 pM to 391.4 pM, read-out: mean EC50, genomic activation) and 67.5 nM in data set [2] (95% confidence interval 32.8 nM to 138.8 nM, read-out: mean EC50, ERK 1/2 kinase phosphorylation). Moreover, the “activation of transcription via a RARE (genomic response)” value (shortened to “activation of transcription via a RARE”) in data set [1] was “induces gene transcription of a RAR driven reporter gene”. In addition, in data set [3], the “effect on number of neurites compared to control” value is recorded as “no significant effect”. In data set [3] (SH-SY5Y cell line, preliminary results, result in words), the neurite outgrowth entry is “promotes neurite outgrowth”.

Take `COCCOCOc1cc2ccc(-c3ccc(C(=O)O)cc3)cc2cc1C12CC3CC(CC(C3)C1)C2` [CD2665]: the “activation of transcription via a RARE” value in data set [1] is listed as “shows no sign of activity to regulate gene expression via a RARE”. Besides, in data set [2], the “kinase activity (ERK 1/2 phosphorylation, non-genomic response)” value is on record as “has significant kinase activity”.

As to `CC(C)N1CCC(C)(C)c2cc(C#Cc3ccc(C(=O)O)cc3)ccc21` [DC271], the Kd in data set [4] (direct binding of the fluorescent retinoid, read-out: dissociation constant against CRABPII, Kd) was 49.1 ± 2.6 nM.

As to `CC1(C)CCC(C)(C)c2cc(C#Cc3ccc(C(=O)O)cc3)ccc21` [EC23®, 4-(5,5,8,8-tetramethyl-5,6,7,8-tetrahydro-naphthalen-2-ylethynyl) benzoic acid], the “fold greater activity than retinoic acid (ATRA) in transactivation of a RAR driven reporter gene” value in data set [1] (relative to retinoic acid (ATRA)) is “up to 500 fold”. Moreover, the “capacity to induce ERK phosphorylation (western blotting of phosphorylated ERK)” value in data set [2] (10 μM, after 20 minutes, versus same concentration of retinoic acid) was “much greater in its capacity to induce ERK phosphorylation than the same concentration of retinoic acid”. In addition, the “effect on number of neurites compared to control” value in data set [3] was “strong and significant effect”. The “number of SH-SY5Y cells” value in data set [5] is on record as “greatly enhances the number of SH-SY5Y cells”. In data set [4] (competition with DC271 49.8 nM, CRABPII 75 nM, PBS pH 7.4, one site model), this compound registered an inhibitory constant (Ki) of 3.16 nM. Further, the photostability entry in data set [6] is on record as “photostable”. In addition, the “induction of its own catabolism in vivo” value in data set [7] is recorded as “does not induce its own catabolism in vivo”.

In the case of `C/C(=C\c1ccc(C(=O)O)cc1)c1ccc2c(c1)C(C)(C)CCC2(C)C` [TTNPB], the “activation of transcription via a RARE” value in data set [1] is reported as “can potently activate transcription via a RARE”. Also, in data set [2], the “kinase activity (ERK 1/2 phosphorylation, non-genomic response)” value is “does not activate kinase activity”.

Broadly, the Kd is the concentration at which binding is half-saturated. In general, Ki refers to the dissociation constant of the complex between target and ligand, obtained from inhibition or displacement.

Values taken from patent publication US20190112272A1, “SYNTHETIC RETINOIDS FOR USE IN RAR MEDIATED CONDITIONS” (High Force Research Limited, priority 2016, published 2019).
